According to patent publication US20210330659A1, “USE OF NICOTINAMIDE COMPOSITION IN PREPARATION OF DRUG FOR TREATING HAND-FOOT SKIN REACTION INDUCED BY SORAFENIB” (ZHEJIANG UNIVERSITY, priority 2018, published 2021):

Columns and labels:
[1] = test system: keratin 1, keratin 10 and Loricrin in HaCaT cells; experiment: mRNA levels of keratinization indicators in HaCaT cells given HUVEC conditioned medium; type: cell-based
Description: (§1) HUVEC cells were administrated with 15 μM sorafenib. After that, the cells and the culture medium were separately collected, and the culture medium is concentrated. […] HUVEC culture medium treated with sorafenib, as a conditioned medium, was applied to HaCaT cells, and the expression of SIRT1 in the cells was detected. […] After HUVEC cells with HB-EGF knocked out were constructed, the culture medium obtained after administrated with sorafenib was administrated to the HaCaT cells, and mRNA levels of the keratinization progress indicators, i.e., keratin 1, keratin 10 and Loricrin, were detected. […] The HUVEC culture medium added with sorafenib, as the conditioned medium, was applied to the HaCaT cells in which SIRT1 was knocked out, and the mRNA levels of the three keratins were detected.
In an in vitro cell experimental model, HUVEC cells were administered with 15 μM sorafenib alone, and 15 μM sorafenib together with 10 μM nicotinamide, respectively. After 24 hours, the culture medium was collected as a conditioned medium for HaCaT cells, and the HaCaT cells were collected 24 hours later for the detection of mRNA levels of three keratins.

[2] = patients treated with sorafenib; cited from earlier work
[3] = test system: SIRT1 in HaCaT cells; experiment: SIRT1 expression in HaCaT cells given sorafenib-treated HUVEC conditioned medium; type: cell-based; details: HaCaT cells given sorafenib-treated HUVEC culture medium as conditioned medium, FIG. 1B
Description: as §1

[4] = test system: HB-EGF protein in HUVEC cells; experiment: Western blot of pro-HB-EGF in cell lysate and s-HB-EGF in culture medium of sorafenib-treated HUVEC cells; type: cell-based; details: 15 μM sorafenib, FIG. 1A
Description: as §1

Structure (SMILES)	mRNA levels of keratin 1, keratin 10 and Loricrin ([1]; HaCaT cells given medium of sorafenib-treated HUVEC cells with HB-EGF knocked out, FIG. 1C)	mRNA levels of keratin 1, keratin 10 and Loricrin ([1]; SIRT1-knocked-out HaCaT cells given sorafenib-treated HUVEC conditioned medium, FIG. 1D)	prevalence of hand-foot skin reaction (HFSR) [2]	expression of SIRT1 in HaCaT cells [3]	expression level of the HB-EGF protein in the cells (pro-HB-EGF, cell lysate) ([4]; HUVEC cells)	expression of HB-EGF protein in the culture medium (s-HB-EGF) ([4]; HUVEC culture medium, concentrated)	mRNA levels of the three keratins (keratin 1, keratin 10, Loricrin) ([1]; HUVEC treated 24 h with 10 μM nicotinamide plus 15 μM sorafenib, medium applied to HaCaT for 24 h, compared with sorafenib alone, FIG. 2)
CNC(=O)c1cc(Oc2ccc(NC(=O)Nc3ccc(Cl)c(C(F)(F)F)c3)cc2)ccn1 [sorafenib]	down-regulated	also down-regulated	up to 60%	up-regulated	down-regulated	increased	
NC(=O)c1cccnc1 [nicotinamide, 3-pyridinecarboxamide]							significantly down-regulated
